Holding throughout (type): cell-based
One assay deals with T1, human P2X7 channel (Homo sapiens, UniProt Q99572).
T1 construct: expressed in transfected cells; host or cells: HEK-293
T1 sequence (Q99572 1-595): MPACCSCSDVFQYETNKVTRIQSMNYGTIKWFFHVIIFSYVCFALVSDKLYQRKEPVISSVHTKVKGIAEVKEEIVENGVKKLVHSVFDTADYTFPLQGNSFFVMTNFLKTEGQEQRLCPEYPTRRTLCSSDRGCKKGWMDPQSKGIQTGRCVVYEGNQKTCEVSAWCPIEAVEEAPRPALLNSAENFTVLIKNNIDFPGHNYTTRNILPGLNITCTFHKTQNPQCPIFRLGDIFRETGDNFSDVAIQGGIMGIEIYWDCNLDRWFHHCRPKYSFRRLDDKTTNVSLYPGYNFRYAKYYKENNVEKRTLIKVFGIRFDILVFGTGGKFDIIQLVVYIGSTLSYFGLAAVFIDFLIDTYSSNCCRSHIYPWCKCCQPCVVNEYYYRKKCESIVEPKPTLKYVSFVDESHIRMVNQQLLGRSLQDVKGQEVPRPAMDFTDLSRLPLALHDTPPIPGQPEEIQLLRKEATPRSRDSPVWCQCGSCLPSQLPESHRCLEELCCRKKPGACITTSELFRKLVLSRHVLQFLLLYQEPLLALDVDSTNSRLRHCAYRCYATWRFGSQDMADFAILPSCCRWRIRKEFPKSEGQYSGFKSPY
Nature of the assay: human P2X7 channel assay by automated patch-clamp (QPatch 16X). Conditions: HEK-293 cells expressing P2X7; current evoked by 100 microM BzATP; whole-cell, held at -80 mV; read-out: human Q-Patch (activity range). The method in brief: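 Whole-cell patch clamp on HEK-293 cells expressing P2X7, room temperature, held at −80 mV, CsF internal and NaCl external (pH 7.4). Currents evoked by 100 microM BzATP, four controls then with compound at 1, 10, 100 and 1000 nM; peak inward current normalized, IC50 from dose-response fit, reported as potency bins.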

The target in the next assay is T2, ratP2X7 (Rattus norvegicus, UniProt Q64663).
T2 construct: expressed in transfected cells; host or cells: HEK-293
T2 sequence (Q64663 1-595): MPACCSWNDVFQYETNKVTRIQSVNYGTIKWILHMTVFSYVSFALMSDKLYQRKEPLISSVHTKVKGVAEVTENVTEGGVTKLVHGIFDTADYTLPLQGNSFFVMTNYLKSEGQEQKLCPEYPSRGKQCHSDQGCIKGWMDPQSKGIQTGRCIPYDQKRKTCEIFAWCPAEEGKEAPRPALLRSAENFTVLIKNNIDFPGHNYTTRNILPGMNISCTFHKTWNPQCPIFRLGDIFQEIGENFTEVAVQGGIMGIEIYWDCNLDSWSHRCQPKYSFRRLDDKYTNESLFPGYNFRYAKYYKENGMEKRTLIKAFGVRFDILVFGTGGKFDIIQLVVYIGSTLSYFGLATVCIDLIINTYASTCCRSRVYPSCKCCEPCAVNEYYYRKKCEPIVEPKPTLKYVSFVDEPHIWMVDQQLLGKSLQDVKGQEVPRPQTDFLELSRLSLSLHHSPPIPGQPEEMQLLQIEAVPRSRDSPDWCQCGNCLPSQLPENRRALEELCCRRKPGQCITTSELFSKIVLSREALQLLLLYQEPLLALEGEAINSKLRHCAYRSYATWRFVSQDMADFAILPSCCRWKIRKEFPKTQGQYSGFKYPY
Nature of the assay: P2X7 channel calcium-influx assay (Fluo-8, FLIPR TETRA), rat P2X7. Conditions: HEK-293 cells stably transfected with P2X7; Bz-ATP at EC80; low divalent cation buffer; read-out: ratP2X7 (activity range). The method in brief:
(§1)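 HEK-293 cells stably expressing the respective species' P2X7, Fluo-8 NW loaded 1 h at RT in low divalent buffer (0.3 mM Ca2+, 0 mM Mg2+). Compound preincubated 5 min, then Bz-ATP at EC80; FLIPR calcium influx over 3 min. IC50 from % inhibition relative to reference antagonist A438079, reported as potency bins.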

The next assay concerns the target T3, mouseP2X7 (Mus musculus, UniProt Q9Z1M0).
T3 construct: expressed in transfected cells; host or cells: HEK-293
T3 sequence (Q9Z1M0 1-595): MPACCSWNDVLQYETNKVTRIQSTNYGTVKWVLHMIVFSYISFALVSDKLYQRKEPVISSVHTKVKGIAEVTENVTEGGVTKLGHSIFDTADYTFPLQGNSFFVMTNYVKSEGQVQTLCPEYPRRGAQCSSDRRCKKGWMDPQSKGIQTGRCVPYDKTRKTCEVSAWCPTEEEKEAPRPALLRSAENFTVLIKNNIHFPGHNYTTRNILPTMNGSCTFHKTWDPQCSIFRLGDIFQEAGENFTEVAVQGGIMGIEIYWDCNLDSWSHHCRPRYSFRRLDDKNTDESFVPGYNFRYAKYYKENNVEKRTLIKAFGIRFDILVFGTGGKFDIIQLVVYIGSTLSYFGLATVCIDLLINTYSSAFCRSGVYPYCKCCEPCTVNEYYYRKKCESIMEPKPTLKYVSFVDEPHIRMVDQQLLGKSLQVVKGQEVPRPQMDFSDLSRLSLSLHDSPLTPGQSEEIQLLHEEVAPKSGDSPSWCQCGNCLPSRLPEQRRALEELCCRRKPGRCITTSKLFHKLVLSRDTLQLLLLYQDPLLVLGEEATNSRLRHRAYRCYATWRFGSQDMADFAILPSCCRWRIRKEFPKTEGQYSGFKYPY
Nature of the assay: P2X7 channel calcium-influx assay (Fluo-8, FLIPR TETRA), mouse P2X7. Conditions: HEK-293 cells stably transfected with P2X7; Bz-ATP at EC80; low divalent cation buffer; read-out: mouseP2X7 (activity range). Summed up:
as §1

The target in a further assay is T4, humanP2X7 (Homo sapiens, UniProt Q99572).
T4 construct: expressed in transfected cells; host or cells: HEK-293
T4 sequence (Q99572 1-595): T1 sequence (Q99572 1-595)
Nature of the assay: P2X7 channel calcium-influx assay (Fluo-8, FLIPR TETRA), human P2X7. The conditions noted are these: HEK-293 cells stably transfected with P2X7; Bz-ATP at EC80; low divalent cation buffer; read-out: humanP2X7 (activity range). The method in brief:
as §1

On to `Cn1nc(Cc2c(F)cccc2Cl)n(CCN2CCOCC2(C)C)c1=O` [Example 30, 5-(2-chloro-6-fluorobenzyl)-4-(2-(3,3-dimethylmorpholino)ethyl)-2-methyl-2,4-dihydro-3H-1,2,4-triazol-3-one], for which the IC50 at human P2X7 channel fell in the range of 1000 to 10000 nM; on ratP2X7 it was 1000 to 10000 nM; at mouseP2X7, 10000 to 30000 nM; on humanP2X7, 1000 to 10000 nM.

As for `Cc1ncccc1Cn1c(CC2CCCCC2)nn(C)c1=O` [Example 31, 5-(cyclohexylmethyl)-2-methyl-4-((2-methylpyridin-3-yl)methyl)-2,4-dihydro-3H-1,2,4-triazol-3-one], the IC50 on human P2X7 channel lay in the range of 100 to 1000 nM; at ratP2X7, 1000 to 10000 nM; at mouseP2X7, 10000 to 30000 nM; at humanP2X7 it was 1000 to 10000 nM.

Consider `Cn1nc(Cc2ccccc2F)n(CC2CCCCC2(C)C)c1=O` (stereo not shown) [Example 32, 4-((2,2-dimethylcyclohexyl)methyl)-5-(2-fluorobenzyl)-2-methyl-2,4-dihydro-3H-1,2,4-triazol-3-one], for which the IC50 at human P2X7 channel was 1000 to 10000 nM; at ratP2X7, below 200 nM; on mouseP2X7, 1000 to 10000 nM; on humanP2X7 it was 1000 to 10000 nM.

As for `Cn1nc(Cc2c(F)cccc2Cl)n(CC2CCCCC2(C)C)c1=O` (stereo not shown) [Example 33, 5-(2-chloro-6-fluorobenzyl)-4-((2,2-dimethylcyclohexyl)methyl)-2-methyl-2,4-dihydro-3H-1,2,4-triazol-3-one], the IC50 was 10 to 100 nM on human P2X7 channel, below 200 nM on ratP2X7, 200 to 1000 nM at mouseP2X7 and below 200 nM on humanP2X7.

Consider `CCn1nc(Cc2c(F)cccc2Cl)n(CC2CCC(F)(F)CC2)c1=O` [Example 34, 5-(2-chloro-6-fluorobenzyl)-4-((4,4-difluorocyclohexyl)methyl)-2-ethyl-2,4-dihydro-3H-1,2,4-triazol-3-one], for which the IC50 at human P2X7 channel is 10 to 100 nM; on ratP2X7, below 200 nM; on mouseP2X7, below 200 nM; at humanP2X7, below 200 nM.

On to `Cn1nc(Cc2ccc(F)cc2Cl)n(CC2CCC3(CC2)CC3)c1=O` [Example 35, 5-(2-chloro-4-fluorobenzyl)-2-methyl-4-(spiro[2.5]octan-6-ylmethyl)-2,4-dihydro-3H-1,2,4-triazol-3-one], for which the IC50 on human P2X7 channel is 100 to 1000 nM; at ratP2X7, below 200 nM; on mouseP2X7, 1000 to 10000 nM; at humanP2X7, 200 to 1000 nM.

For `Cn1nc(Cc2ccc(F)cc2Cl)n(CCC2CCC(F)(F)CC2)c1=O` [Example 36, 5-(2-chloro-4-fluorobenzyl)-4-(2-(4,4-difluorocyclohexyl)ethyl)-2-methyl-2,4-dihydro-3H-1,2,4-triazol-3-one], the IC50 at human P2X7 channel was 100 to 1000 nM; on ratP2X7, 200 to 1000 nM; on mouseP2X7 it was 1000 to 10000 nM; at humanP2X7, 200 to 1000 nM.

Consider `Cn1nc(Cc2ccccc2F)n(CC2CCCCCC2)c1=O` [Example 37, 4-(cycloheptylmethyl)-5-(2-fluorobenzyl)-2-methyl-2,4-dihydro-3H-1,2,4-triazol-3-one], for which the IC50 at human P2X7 channel was 100 to 1000 nM; on ratP2X7, below 200 nM; at mouseP2X7, 200 to 1000 nM; on humanP2X7, 200 to 1000 nM.

Take `Cn1nc(CC2CCCCC2)n(Cc2cc(-c3ncc(F)cn3)ccc2Cl)c1=O` [Example 38, 4-(2-chloro-5-(5-fluoropyrimidin-2-yl)benzyl)-5-(cyclohexylmethyl)-2-methyl-2,4-dihydro-3H-1,2,4-triazol-3-one]: the IC50 on human P2X7 channel fell in the range of 1000 to 10000 nM; on ratP2X7, 200 to 1000 nM; at mouseP2X7, 1000 to 10000 nM; at humanP2X7 it was 200 to 1000 nM.

Consider `Cn1nc(Cc2ccccc2C(F)(F)F)n(CCC2CCC(F)(F)CC2)c1=O` [Example 39, 4-(2-(4,4-difluorocyclohexyl)ethyl)-2-methyl-5-(2-(trifluoromethyl)benzyl)-2,4-dihydro-3H-1,2,4-triazol-3-one], for which the IC50 was in the range of 100 to 1000 nM on human P2X7 channel, 200 to 1000 nM at ratP2X7, 1000 to 10000 nM on mouseP2X7 and 200 to 1000 nM at humanP2X7.

(Values after US20240368092A1, “2,4-Dihydro-3H-1,2,4-Triazol-3-One P2X7 Antagonists” (Breye Therapeutics ApS, priority 2021, published 2024).)
